# Results: US20240299382A1, “COMPOUNDS AND METHODS FOR DEGRADING RCOR1, LSD1, HDAC1 AND HDAC2 IN THE COREST” (University of Florida Research Foundation, Inc., priority 2021, published 2024)
# “Also recorded” adds a separate entry of the source. Where two headings read alike, the source gives them in different places.
# Key:
# [1] = mice, 50 mg/kg orally; cited from earlier work
# [2] = tested on: MDA-MB-231 and T47D cells; assay: Viability assay using CellTiter-Glo, four days; format: cell-based; settings: SR-4370 compared to UF010
# Experimental: (§1) MDA-MB-231 and T47D cells were treated with the indicated compounds for four days (FIG. 5A). Viability assays were done using CellTiter-Glo. Shown are normalized values vs. vehicle±SEM (n=3). IC50 values are calculated using Prism 6. Note that SR-3460 has no HDACi activity. Cells were seeded and then continuously treated with SR-4370 or UF010 at the indicated concentrations for 15 days. Colonies were fixed and stained (FIG. 5B).
# HDACs = assay: HDAC inhibition (HDACi activity); format: biochemical
# HDAC2 = target: T1, HDAC2 (Homo sapiens, UniProt Q92769); assay: Western blotting of protein levels in MCF7 cells; format: cell-based; settings: for degradation of HDAC2: 10 μM, 6 hours, Western blotting
# T1 construct: endogenous in cells; host or cells: MCF7
# Experimental: (§2) MCF7 cells were exposed to DMSO or the indicated compounds (10 μM) for 6 hours. Cells were pretreated with the proteasomal inhibitor MG132 (MG, 3 μM) or the neddylation inhibitor MLN4924 (MLN, 1 μM) for 2 hours. Cells were then lysed and subjected to Western blotting with antibodies against the indicated proteins. The levels of RCOR1 were normalized against that of tubulin and shown as % of DMSO control.
# (§3) MCF7 cells were exposed to DMSO, SR-4370 and other compounds at the indicated concentrations for 14 hours. Cells were pretreated with the proteasomal inhibitor MG132 (MG, 3 μM) or the neddylation inhibitor MLN4924 (MLN, 1 μM) for 2 hours. Cells were then lysed and subjected to Western blotting with antibodies against the indicated proteins. The levels of RCOR1 and LSD1 were normalized against that of tubulin and shown as % of DMSO control.
# HDAC1 = target: T2, HDAC1 (Homo sapiens, UniProt Q13547); assay: Western blotting of protein levels in MCF7 cells; format: cell-based; settings: for degradation of HDAC1: 10 μM, 6 hours, Western blotting
# T2 construct: endogenous in cells; host or cells: MCF7
# Experimental: as §2, §3
# RCOR1 = target: T3, RCOR1 (Homo sapiens, UniProt Q9UKL0); assay: Western blotting of protein levels in MCF7 cells; format: cell-based; settings: for degradation of RCOR1: 10 μM, 6 hours, Western blotting; for RCOR1 protein level: indicated concentrations
# T3 construct: Cells were then lysed and subjected to Western blotting with antibodies against the indicated proteins; endogenous in cells; host or cells: MCF7
# Experimental: (§4) […] Cells were pretreated with the proteasomal inhibitor MG132 (MG, 3 μM) or the neddylation inhibitor MLN4924 (MLN, 1 μM) for 2 hours. Cells were then lysed and subjected to Western blotting with antibodies against the indicated proteins. The levels of RCOR1 were normalized against that of tubulin and shown as % of DMSO control.
# (§5) Cells were pretreated with the proteasomal inhibitor MG132 (MG, 3 μM) or the neddylation inhibitor MLN4924 (MLN, 1 μM) for 2 hours. Cells were then lysed and subjected to Western blotting with antibodies against the indicated proteins. The levels of RCOR1 and LSD1 were normalized against that of tubulin and shown as % of DMSO control.
# LSD1 = target: T4, LSD1 (Homo sapiens, UniProt O60341); assay: Western blotting of protein levels in MCF7 cells; format: cell-based; settings: for degradation of LSD1 / LSD1 protein level: MCF7 cells; for degradation of LSD1: 10 μM, 6 hours, Western blotting; for LSD1 protein level: indicated concentrations, 14 hours
# T4 construct: Cells were then lysed and subjected to Western blotting with antibodies against the indicated proteins; endogenous in cells; host or cells: MCF7
# Experimental: as §4, §5
# [3] = tested on: MDA-MB-231 xenograft tumors; orthotopic EMT6 and 4T1 mouse breast tumors; assay: In vivo efficacy in breast tumor models; settings: mice bearing MDA-MB-231 xenograft, EMT6 or 4T1 tumors
# Experimental: Female athymic mice bearing the MDA-MB-231 xenograft tumors were dosed with vehicle or SR-4370 (FIG. 3A). Tumor volumes and final tumor weights are plotted (average±SD). *: p<0.05, **: p<0.01 (FIGS. 3B and 3C). Female BALB/c mice bearing the orthotopic EMT6 (FIG. 3B) and 4T1 (FIG. 3C) mouse breast tumors were dosed with SR-4370 as in (FIG. 3A). At the endpoint, tumors were removed from euthanized mice and weighed. The tumor weight plots are shown (average±SD). The p values were calculated based on t test.
# [4] = Blood chemistry tests in tumor-bearing athymic mice
# HDAC8 = target: T5, HDAC8 (Homo sapiens, UniProt Q9BY41); assay: Western blotting of protein levels in MCF7 cells; format: cell-based; settings: 14 hours
# T5 construct: endogenous in cells; host or cells: MCF7
# T5 sequence (Q9BY41 1-377): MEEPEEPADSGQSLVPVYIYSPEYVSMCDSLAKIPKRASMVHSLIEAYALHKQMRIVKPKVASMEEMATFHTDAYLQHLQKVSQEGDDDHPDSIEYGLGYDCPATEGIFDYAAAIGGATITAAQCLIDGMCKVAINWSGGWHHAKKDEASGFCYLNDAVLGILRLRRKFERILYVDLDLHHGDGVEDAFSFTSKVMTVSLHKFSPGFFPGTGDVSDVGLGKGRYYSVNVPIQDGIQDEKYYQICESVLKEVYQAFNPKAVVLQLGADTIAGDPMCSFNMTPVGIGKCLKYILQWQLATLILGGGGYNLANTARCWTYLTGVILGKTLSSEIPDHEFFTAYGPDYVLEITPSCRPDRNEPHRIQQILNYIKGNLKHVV
# Experimental: as §3
# RCOR2 = assay: Western blotting of protein levels in MCF7 cells; format: cell-based; settings: 14 hours
# Experimental: as §3
# LSD2 = assay: Western blotting of protein levels in MCF7 cells; format: cell-based; settings: 14 hours
# Experimental: as §3
# MTA2 = assay: Western blotting of protein levels in MCF7 cells; format: cell-based; settings: 14 hours
# Experimental: as §3
# HDAC3 = target: T6, HDAC3 (Homo sapiens, UniProt O15379); assay: Western blotting of protein levels in MCF7 cells; format: cell-based; settings: 14 hours
# T6 construct: endogenous in cells; host or cells: MCF7
# Experimental: as §3
# RCOR3 = assay: Western blotting of protein levels in MCF7 cells; format: cell-based; settings: 14 hours
# Experimental: as §3
# RBBP4 = assay: Western blotting of protein levels in MCF7 cells; format: cell-based; settings: 14 hours
# Experimental: as §3
# BC cell lines = assay: Colony formation, continuous treatment for 15 days; format: cell-based; settings: continuous treatment 15 days, colonies; compared to UF010
# Experimental: as §1
# [5] = Tolerability and body weights of tumor-bearing mice dosed with SR-4370
# Experimental: Female BALB/c mice bearing the EMT6 tumors were dosed with vehicle or SR-4370 (50 mg/kg) via intraperitoneal injection.
# (§6) In vivo tolerability of UF010, the first identified compound of the benzoylhydrazide HDACi class, was evaluated in mice. […] We conducted pilot experiments to evaluate PK parameters of UF010. As with the MTD experiment, mice were dosed orally at 80 mg/kg. Plasma samples were collected at various time points and the amount of UF010 was determined.
# [6] = In vivo tolerability / MTD of UF010, oral dosing; settings: mice, oral dosing up to 80 mg/kg
# Experimental: as §6
# [7] = PK parameters after oral dosing in mice; settings: 80 mg/kg orally
# Experimental: as §6
# [8] = data from ref 80; cited from earlier work
# [9] = tumor-bearing athymic mice, average ± SD, n = 6
# [10] = tumor-bearing mice at the endpoint
# [11] = indicated concentrations, 14 hours
# [12] = MCF7 cells pretreated with MLN4924 (1 μM) or MG132 (3 μM) for 2 hours
# T1 sequence (Q92769 whole entry): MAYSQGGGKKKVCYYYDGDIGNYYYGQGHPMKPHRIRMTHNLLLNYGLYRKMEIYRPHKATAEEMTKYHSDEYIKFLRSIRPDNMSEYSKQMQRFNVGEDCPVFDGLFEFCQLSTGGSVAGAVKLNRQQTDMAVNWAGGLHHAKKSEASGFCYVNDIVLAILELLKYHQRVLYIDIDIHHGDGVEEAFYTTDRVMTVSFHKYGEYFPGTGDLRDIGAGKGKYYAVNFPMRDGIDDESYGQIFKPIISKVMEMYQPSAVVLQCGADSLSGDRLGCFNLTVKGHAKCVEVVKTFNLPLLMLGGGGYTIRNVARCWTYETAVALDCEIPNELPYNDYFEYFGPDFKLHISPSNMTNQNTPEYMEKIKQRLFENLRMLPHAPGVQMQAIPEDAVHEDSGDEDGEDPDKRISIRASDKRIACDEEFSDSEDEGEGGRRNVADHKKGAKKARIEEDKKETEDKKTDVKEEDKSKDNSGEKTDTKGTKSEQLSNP
# T3 sequence (Q9UKL0 whole entry): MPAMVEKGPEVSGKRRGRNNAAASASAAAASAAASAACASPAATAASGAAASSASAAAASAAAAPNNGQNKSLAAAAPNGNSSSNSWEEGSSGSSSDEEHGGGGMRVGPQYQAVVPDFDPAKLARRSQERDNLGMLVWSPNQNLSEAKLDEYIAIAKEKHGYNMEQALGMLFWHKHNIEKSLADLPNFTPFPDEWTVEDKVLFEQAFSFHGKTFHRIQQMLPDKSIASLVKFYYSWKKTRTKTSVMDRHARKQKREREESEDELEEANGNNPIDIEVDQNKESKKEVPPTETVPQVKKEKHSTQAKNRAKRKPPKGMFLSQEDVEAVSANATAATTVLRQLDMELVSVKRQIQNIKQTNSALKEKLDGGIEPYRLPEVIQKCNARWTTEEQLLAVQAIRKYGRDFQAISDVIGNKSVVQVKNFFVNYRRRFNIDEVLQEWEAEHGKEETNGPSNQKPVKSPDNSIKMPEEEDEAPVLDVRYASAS
# T2 sequence (Q13547 whole entry): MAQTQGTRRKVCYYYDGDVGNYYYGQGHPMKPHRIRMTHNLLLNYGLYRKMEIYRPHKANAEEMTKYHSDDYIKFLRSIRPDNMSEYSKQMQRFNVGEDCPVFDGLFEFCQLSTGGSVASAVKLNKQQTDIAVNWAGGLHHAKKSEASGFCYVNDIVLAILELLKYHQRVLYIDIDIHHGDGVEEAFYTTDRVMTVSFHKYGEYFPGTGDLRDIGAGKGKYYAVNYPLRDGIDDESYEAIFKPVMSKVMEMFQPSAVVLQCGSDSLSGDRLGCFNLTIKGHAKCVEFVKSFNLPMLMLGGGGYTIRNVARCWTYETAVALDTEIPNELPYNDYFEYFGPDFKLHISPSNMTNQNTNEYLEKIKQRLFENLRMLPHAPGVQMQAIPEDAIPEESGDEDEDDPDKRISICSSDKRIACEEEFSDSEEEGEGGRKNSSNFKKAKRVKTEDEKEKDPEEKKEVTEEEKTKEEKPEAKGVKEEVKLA
# T6 sequence (O15379 whole entry): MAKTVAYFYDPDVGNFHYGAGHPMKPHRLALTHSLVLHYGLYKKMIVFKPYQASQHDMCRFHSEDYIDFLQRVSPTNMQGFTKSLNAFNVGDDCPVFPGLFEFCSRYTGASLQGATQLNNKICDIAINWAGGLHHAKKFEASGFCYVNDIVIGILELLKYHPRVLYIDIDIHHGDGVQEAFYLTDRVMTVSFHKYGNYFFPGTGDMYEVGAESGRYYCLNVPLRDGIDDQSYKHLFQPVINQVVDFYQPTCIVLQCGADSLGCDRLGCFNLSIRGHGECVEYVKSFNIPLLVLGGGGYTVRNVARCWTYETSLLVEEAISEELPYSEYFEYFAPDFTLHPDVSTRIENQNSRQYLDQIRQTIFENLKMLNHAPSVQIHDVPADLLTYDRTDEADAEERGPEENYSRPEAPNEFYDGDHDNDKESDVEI
smiles,measurement,setting,value
Cc1ccc(NC(=O)CCCCCC(=O)Nc2ccccc2N)cc1 [4b],AUC,[1],1.08 µM·h
same,Cmax,[1],1.13 µM
same,T1/2,[1],2.76 h
same,Tmax,[1],0.25 h
CCCCNNC(=O)c1ccccc1-c1ccccc1 [SR-3460],"cytotoxic effects / BC cell growth, short-term treatment",[2],did not inhibit BC cell growth
same,HDACi activity,HDACs,does not inhibit HDACs
CCCCNNC(=O)c1ccc(-c2ccccc2)cc1 [SR-3558],degradation of HDAC2,HDAC2,can degrade
same,degradation of HDAC1,HDAC1,can degrade
same,degradation of RCOR1,RCOR1; MCF7 cells,can degrade
same,degradation of LSD1,LSD1,can degrade
CCCCNNC(=O)c1ccc(-c2cncnc2)cc1 [SR-4369],degradation of HDAC2,HDAC2,can degrade
same,degradation of HDAC1,HDAC1,can degrade
same,degradation of RCOR1,RCOR1; MCF7 cells,can degrade
same,degradation of LSD1,LSD1,can degrade
CCCCNNC(=O)c1ccc(-c2cccc(F)c2F)cc1 [SR-4370],"cytotoxic effects / BC cell growth, short-term treatment",[2],more potent cytotoxic effects
same,"anticancer effects in vivo (tumor volumes, tumor weights)",[3],potent anticancer effects
same,ALP,[4]; [9],49.5 (±8.78) U/L
same,ALT,[4]; [9],71.60 (±14.06) U/L
same,BUN,[4]; [9],22.0 (±3.16) mg/dL
same,Calcium,[4]; [9],8.45 (±0.85) mg/dL
same,Chloride,[4]; [9],110.0 (±2.17) mmol/L
same,Cholesterol,[4]; [9],113.0 (±15.92) mg/dL
same,Creatinine,[4]; [9],0.1 (±0.044) mg/dL
same,Glucose,[4]; [9],221.17 (±60.6) mg/dL
same,Phosphorus,[4]; [9],9.73 (±2.69) mg/dL
same,Potassium,[4]; [9],8.75 (±1.82) mmol/L
same,Sodium,[4]; [9],147.33 (±1.51) mmol/L
same,Total bilirubin,[4]; [9],0.25 (±0.054) mg/dL
same,Total protein,[4]; [9],4.95 (±0.217) g/dL
same,liver or kidney toxicities,[4]; [10],no signs of liver or kidney toxicities
same,serum concentrations of various analytes versus reference ranges,[4]; [10],within reference ranges
same,HDAC8 protein level,HDAC8,did not affect
same,RCOR2 protein level,RCOR2,largely without affecting
same,LSD2 protein level,LSD2,largely unaffected
same,MTA2 protein level,MTA2,only moderately reduced at a higher concentration
same,HDAC3 protein level,HDAC3,did not affect
same,RCOR3 protein level,RCOR3,largely without affecting
same,RBBP4 protein level,RBBP4,largely unaffected
same,"cytotoxic effects, long-term treatment",BC cell lines,more potent cytotoxic effects
same,degradation of HDAC2,HDAC2,can degrade
same,HDAC2 protein level,HDAC2; [11],potent and dose-dependent degradation; also recorded: only moderately reduced at a higher concentration
same,degradation of HDAC1,HDAC1,can degrade
same,HDAC1 protein level,HDAC1; [11],potent and dose-dependent degradation; also recorded: only moderately reduced at a higher concentration
same,downregulation of RCOR1 under neddylation or proteasome inhibition,RCOR1; [12],completely reversed
same,degradation of RCOR1,RCOR1; MCF7 cells,can degrade
same,DC50,"RCOR1; MCF7 cells, 14 hours, read-out: DC50 (concentration at which 50% of the target protein is degraded) for RCOR1",< 100 nM
same,RCOR1 protein level,"RCOR1; MCF7 cells, 14 hours",potent and dose-dependent degradation
same,downregulation of LSD1 under neddylation or proteasome inhibition,LSD1; [12],completely reversed
same,degradation of LSD1,LSD1,can degrade
same,LSD1 protein level,LSD1,potent and dose-dependent degradation
same,tolerability,"[5]; SR-4370 up to 50 mg/kg, mice, in vivo efficacy study",completely tolerated
same,body weights during the treatment period,"[5]; tumor-bearing mice, BALB/c mice with EMT6 tumors, 50 mg/kg intraperitoneal, 50 mg/kg",not affected; also recorded: safe as judged by body weights
CCCCNNC(=O)c1ccc(-c2cc(C)cc(F)c2)cc1 [SR-4372],degradation of HDAC2,HDAC2,can degrade
same,degradation of HDAC1,HDAC1,can degrade
same,degradation of RCOR1,RCOR1; MCF7 cells,can degrade
same,degradation of LSD1,LSD1,can degrade
CCCCNNC(=O)c1ccc(Br)cc1 [UF010],degradation of HDAC2,HDAC2,completely inactive
same,degradation of HDAC1,HDAC1,completely inactive
same,degradation of RCOR1,RCOR1; MCF7 cells,completely inactive
same,degradation of LSD1,LSD1,completely inactive
same,in vivo tolerability,[6],completely tolerated without any signs of toxicity or loss of body weight
same,HDACi activity,HDACs,potent HDACi
same,oral bioavailability,[7],bioavailable orally
same,AUC,[7]; plasma,6.07 µM·h
same,Cmax,[7]; plasma,5.95 µM
same,T1/2,[7]; plasma,1.24 h
same,Tmax,[7]; plasma,0.25 h
"O=C(/C=C/c1cccc(S(=O)(=O)Nc2ccccc2)c1)NO [belinostat, reference compound]",RCOR1 protein level,"RCOR1; MCF7 cells, 14 hours",notably increased
same,LSD1 protein level,LSD1,moderately increased
"Nc1ccccc1NC(=O)c1ccc(CNC(=O)OCc2cccnc2)cc1 [entinostat, reference compound]",T1/2,[8],~1 h
same,RCOR1 protein level,"RCOR1; MCF7 cells, 14 hours",notably increased
same,LSD1 protein level,LSD1,slightly reduced
"O=C(CCCCCCC(=O)Nc1ccccc1)NO [vorinostat, reference compound]",RCOR1 protein level,"RCOR1; MCF7 cells, 14 hours",notably increased
same,LSD1 protein level,LSD1,slightly reduced
